Measured values published in article PMC10746103, “Development of a HPLC-MS/MS Method to Assess the Pharmacokinetics and Tumour Distribution of the Dimethylarginine Dimethylaminohydrolase 1 Inhibitors ZST316 and L-257 in a Xenograft Model of Triple-Negative Breast Cancer in Mice” (Molecules, 2023).
pKi: −log10 of the molar value. Where “and” joins values, the source holds several entries; their conditions need not be identical. Equal entries are not always repeated. Entries after “also recorded” stand apart in the source; their conditions may differ. Where two headings read alike, the source gives them in different places.

Legend:
DDAH1 = settings: cited from earlier work
[1] = Tolerability of chronic intraperitoneal ZST316 treatment; format: in vivo; settings: ZST316 30 mg/Kg i.p. daily for five days
Procedure: (§1) Two ×10^6 (in 10 μL) MDA-MB-231 TNBC cells were transplanted into the mammary fat pad. Tumour growth was regularly monitored with a calliper and treatment with ZST316 was given when the tumour volume reached 400–500 mm^3. Mice received either a single dose (acute treatment) or a daily dose of ZST316 30 mg/Kg intraperitoneally for five days (chronic treatment).

[2] = set-up: method as in PMID 35164277; settings: four-week-old FVB mice; oral, intravenous and intraperitoneal administration; cited from earlier work
[3] = Tumour distribution of ZST316 and L-257 after intraperitoneal ZST316 in MDA-MB-231 TNBC xenograft (HPLC-MS/MS); format: in vivo, SCID mice; settings: for time intra-tumour concentration remained above the IC50 and Ki values for DDAH1 inhibition: estimated
Procedure: (§2) Six-week-old female severe combined immunodeficiency disease (SCID) mice (n = 24; Charles River Laboratories Italia S.r.L., Calco, Lecco, Italy), were housed under rigorous standards and handled under pathogen-free conditions in the Animal Care Facilities of the Mario Negri Institute for Pharmacological Research (Milan, Italy).
as §1
(§3) Plasma and tumour tissue (n = 3 mice/each time point) were sampled at 1, 8 and 24 h after treatment (on day 5 for the chronic treatment). To collect plasma, mice were anesthetized by isoflurane, the blood was drained from the retro-orbital plexus into heparinised tubes and centrifuged for 10 min at 4000× g at 4 °C. Tumours were collected and immediately frozen. Plasma and tumour samples were stored at −20 °C until analysis.
Control MDA-MB-231 TNBC cell tumours were homogenized with NH4COOH 50 mM (1:4, w:v). The homogenate (90 μL) was spiked with 5 μL of ZST316 and L-257 working solutions prepared in the range of 100–10,000 ng/mL generating seven tumour calibration standards in the range 25–5000 ng/g. The calibration curve included also a blank and a zero blank standard plasma sample (processed with IS). To prepare QC samples, 90 μL of the homogenate was mixed with an appropriate amount of QC working solutions to obtain QC plasma samples at the nominal concentration of 75, 375, and 1250 ng/g.
The procedure was similar to that described for plasma in Section 3.3.2.
(§4) Reversed-phase chromatography was performed under gradient conditions with separation on a HILIC column, C18, 3 μm, 100 A, 2.1 × 150 mm, Waters (Milford, MA, USA), coupled with a 3 μm, 3.9 × 5.0 mm guard column of the same material at the flow rate of 0.2 mL/min. Gradient features were: 10% mobile phase (MP) A (NH4HCO2 10 mM, 10% CH3CN, 0.1% HCOOH) and 90% MP B (CH3CN, 0.1% HCOOH) as initial constant condition; then to 90% MP A in 6 min and constant condition for 1.5 min. Return to start condition in 0.5 min and conditioning for 5.5 min. Total run time: 13.5 min. Analyte detection and quantification were performed using tandem mass spectrometry (MS/MS) operating in positive ionization mode as previously reported for ZST316 and ZST152 [31].

[4] = Stability of ZST316 and L-257 in frozen plasma; format: in vitro ADME, mice; settings: for Mean found value, Stability −20 °C / Accuracy (%), Stability −20 °C: plasma QC, one month at −20 °C; for Mean found value, Stability −20 °C: n=3; for Accuracy (%), Stability −20 °C: percent of nominal
Procedure: The stability of ZST316 and L-257 in plasma was assessed by analysing QC samples containing both compounds after prolonged storage in the same conditions of the study samples.
Stability was determined by analysing 3 QCs per concentration level immediately after the preparation, and 3 QCs per concentration level after one month of storage at −20 °C. The analytes were considered stable at each QC concentration when the freshly prepared samples and the stability test samples differed by no more than 15% from the nominal concentrations.

[5] = Plasma pharmacokinetics of ZST316 and L-257 after intraperitoneal ZST316 in MDA-MB-231 xenograft mice (HPLC-MS/MS); format: in vivo, SCID mice
Procedure: as §2, §1, §3
To assay ZST316 and L-257, 10 μL of IS (ZST152 WS: 500 ng/mL) were added to 100 μL of study plasma samples, standards, and QCs in a polypropylene tube. The samples were then added with 10 μL of NH4COOH 50 mM, mixed and added with 400 μL CH3OH:0.1% HCOOH, vortex mixed again and centrifuged at 13,200 rpm for 10 min at 4 °C. The supernatant was transferred to a 1.5 mL Eppendorf tube, dried under nitrogen flow and reconstituted with 100 μL of mobile phase (MP) A:B (1:1, v/v). Finally, the samples were centrifuged at 13,200 rpm for 10 min at 4 °C and the supernatant transferred into vials for HPLC-MS/MS analysis.
as §4

[6] = acute (single dose) ZST316 30 mg/Kg i.p., 1 h
[7] = acute ZST316 30 mg/Kg i.p., 1 h, 30 mg/kg
[8] = acute ZST316 30 mg/Kg i.p., 8 h, 30 mg/kg
[9] = acute ZST316 30 mg/Kg i.p., 8 h, n=3, 30 mg/kg
[10] = acute ZST316 30 mg/Kg i.p., 24 h, 30 mg/kg
[11] = acute ZST316 30 mg/Kg i.p., approximately estimated due to limited time points
[12] = chronic (five-day) ZST316 30 mg/Kg i.p. daily, 1 h
[13] = chronic (five-day) ZST316 30 mg/Kg i.p. daily, 24 h
[14] = chronic ZST316 30 mg/Kg i.p. daily
[15] = chronic ZST316 30 mg/Kg i.p. daily, day 5, 1 h, 30 mg/kg
[16] = chronic ZST316 30 mg/Kg i.p. daily, day 5, 8 h, 30 mg/kg
[17] = chronic ZST316 30 mg/Kg i.p. daily, day 5, 8 h, n=3, 30 mg/kg
[18] = chronic ZST316 30 mg/Kg i.p. daily, day 5, 24 h, 30 mg/kg
[19] = chronic ZST316 30 mg/Kg i.p. daily, approximately estimated due to limited time points
[20] = range over acute and chronic treatment

Structure (SMILES): COCCNC(N)=NCCC[C@H](N)C(=O)NS(C)(=O)=O [ZST316]
- Ki expressed as concentration (DDAH1; equivalent of 261 nM, personal data): 0.0803 µg/mL
- pKi (DDAH1; original value): 6.00
- pKi (DDAH1; revised using a more performant assay, personal data): 6.58
- tolerability / signs of toxicity [1]: well tolerated, and no signs of toxicity were recorded
- tolerability [2]: excellent tolerability
- mean intra-tumour concentration [3, 6]: 2.0 µg/g
- mean intra-tumour concentration ([3]; acute (single dose) ZST316 30 mg/Kg i.p., 24 h): 0.04 µg/g
- tumour AUC ([3]; acute ZST316 30 mg/Kg i.p.): 11.4 µg·h/g
- Cmax tumour ([3]; acute ZST316 30 mg/Kg i.p., 30 mg/kg): 2.00 μg/g and 6.47 μM
- tumour concentration, individual mice [3, 7]: 2470 ng/g and 1210 ng/g and 2320 ng/g and 7.99 µM and 3.91 µM and 7.50 µM
- tumour concentration, individual mice [3, 8]: 109 ng/g and 173 ng/g and 0.48 µM and 0.35 µM and 0.56 µM and 149 ng/g
- mean tumour concentration [3, 9]: 144 ng/g and 0.46 μM
- tumour concentration, individual mice [3, 10]: 37.3 ng/g and 32.2 ng/g and 49.0 ng/g and 0.12 µM and 0.10 µM and 0.16 µM
- half-life tumour [3, 11]: 4.5 h
- time intra-tumour concentration remained above the IC50 and Ki values for DDAH1 inhibition ([3]; after acute ZST316 treatment): 15.5 h
- time intra-tumour concentration remained above the IC50 and Ki values for DDAH1 inhibition ([3]; after chronic ZST316 treatment): 16.5 h
- mean intra-tumour concentration [3, 12]: 2.09 µg/g
- mean intra-tumour concentration [3, 13]: 0.06 µg/g
- tumour AUC [3, 14]: 11.8 µg·h/g
- tumour concentration, individual mice [3, 15]: 2490 ng/g and 1750 ng/g and 2020 ng/g and 8.05 µM and 5.66 µM and 6.53 µM
- tumour concentration, individual mice [3, 16]: 110 ng/g and 146 ng/g and 0.39 µM and 0.36 µM and 0.47 µM and 120 ng/g
- mean tumour concentration [3, 17]: 125 ng/g and 0.41 μM
- mean tumour concentration ([3]; chronic ZST316 30 mg/Kg i.p. daily, day 5, 24 h): 57.0 ng/g
- tumour concentration, individual mice [3, 18]: 37.8 ng/g and 108 ng/g and 25.2 ng/g and 0.12 µM and 0.35 µM and 0.08 µM
- mean tumour concentration ([3]; chronic ZST316 30 mg/Kg i.p. daily, day 5, 24 h, n=3): 0.18 µM
- Cmax tumour ([3]; chronic ZST316 30 mg/Kg i.p. daily, 30 mg/kg): 2.09 μg/g and 6.76 μM
- half-life tumour [3, 19]: 5.0 h
- half-life tumour [3, 20]: 4.5 to 5.0 h
- measured concentration in unknown study tumour sample (Figure 3) ([3]; representative chromatogram, sample taken at 24 h after acute treatment (b8)): 37.3 ng/g
- stability in frozen plasma ([4]; at least one month at −20 °C): stable
- Mean found value, Stability −20 °C ([4]; actual value 15.00 ng/mL): 14.3 ng/mL
- Accuracy (%), Stability −20 °C ([4]; actual value 15.00 ng/mL): 95.4%
- Mean found value, Stability −20 °C ([4]; actual value 75.00 ng/mL): 72.4 ng/mL
- Accuracy (%), Stability −20 °C ([4]; actual value 75.00 ng/mL): 96.5%
- Mean found value, Stability −20 °C ([4]; actual value 250.00 ng/mL): 240.0 ng/mL
- Accuracy (%), Stability −20 °C ([4]; actual value 250.00 ng/mL): 96.0%
- accumulation in plasma and tumour during chronic treatment ([5]; ZST316 30 mg/Kg i.p. daily for five days, day 5 vs day 1, 30 mg/kg): without accumulation; also recorded: No accumulation
- mean plasma concentration [5, 6]: 2.79 µg/mL
- mean plasma concentration ([5]; acute (single dose) ZST316 30 mg/Kg i.p., 24 h, 30 mg/kg): 0.05 µg/mL and 0.04 µg/mL
- Cmax ([5]; acute ZST316 30 mg/Kg i.p.): 9.03 µM
- Cmax plasma ([5]; acute ZST316 30 mg/Kg i.p.): 2790 ng/mL
- Plasma AUC1–24 h ([5]; acute ZST316 30 mg/Kg i.p.): 0.050
- Plasma AUC1–24 h ([5]; acute ZST316 30 mg/Kg i.p. (day 1)): 15.3 µg·h/mL
- plasma concentration, individual mice [5, 7]: 3000 ng/mL and 2150 ng/mL and 3210 ng/mL and 9.70 µM and 6.95 µM and 10.38 µM
- plasma concentration, individual mice [5, 8]: 162 ng/mL and 147 ng/mL and 0.38 µM and 0.52 µM and 0.48 µM and 119 ng/mL
- mean plasma concentration [5, 9]: 143 ng/mL and 0.46 μM
- plasma concentration, individual mice [5, 10]: 64.2 ng/mL and 53.7 ng/mL and 25 ng/mL and 0.21 µM and 0.17 µM and 0.08 µM
- half-life plasma [5, 11]: 4.4 h
- mean plasma concentration [5, 12]: 2.22 µg/mL
- mean plasma concentration [5, 13]: 0.12 µg/mL
- Cmax [5, 14]: 7.18 µM
- Cmax plasma [5, 14]: 2220 ng/mL
- Plasma AUC1–24 h [5, 14]: 0.040
- Plasma AUC1–24 h ([5]; chronic ZST316 30 mg/Kg i.p. daily (day 5)): 12.4 µg·h/mL
- plasma concentration, individual mice [5, 15]: 2440 ng/mL and 2030 ng/mL and 2200 ng/mL and 7.89 µM and 6.57 µM and 7.12 µM
- plasma concentration, individual mice [5, 16]: 81.7 ng/mL and 54.7 ng/mL and 41.8 ng/mL and 0.26 µM and 0.18 µM and 0.14 µM
- mean plasma concentration [5, 17]: 59.4 ng/mL and 0.19 μM
- plasma concentration, individual mice [5, 18]: 101 ng/mL and 173 ng/mL and 86.3 ng/mL and 0.33 µM and 0.56 µM and 0.28 µM
- half-life plasma [5, 19]: 7.1 h
- half-life plasma [5, 20]: 4.4 to 7.1 h
- measured concentration in unknown study plasma sample (Figure 2) ([5]; representative chromatogram, sample taken at 1 h after acute treatment (b8)): 2200 ng/mL
